Source: ChEMBL document CHEMBL3507680, “University of Dundee, Gates Library screen for HepG2 cell viability”

Experiment: Human HepG2 cell viability assay in 384 well format
Type: toxicity, cell-based
Set-up: dose 125 nL, time 70.5 hour; cytotoxicity at 70.5 h: concentration not given beside the values
Details: HepG2 cells, read-out: Inhibition

Compound | cytotoxicity at 70.5 h [%]
CCc1cc(N2CCC3(CCCNC3=O)C2)nc(N2CCOCC2)n1 (centres undefined) | -4.73
O=c1n(CC2COCCO2)nc(CC2CCNCC2)n1-c1ccccc1 (centres undefined) | -3.66
Cn1cc(CN2CCCCC2c2ccc(-c3cccc(Cl)c3)nc2)cn1 (centres undefined) | -4.26
O=C(CCc1ccc(Cl)cc1)NC1CCN(c2cccc(F)c2)CC1 | 10.5
Cn1cccc1C(=O)OCCNC(=O)c1ccccc1 | -10.7
CCOc1ccnc(N2CCN(C(=O)c3ccn(C)c(=O)c3)CC2)n1 | -1.73
Cc1c(OCC(=O)NCc2ccccc2)c(=O)ccn1C | -17.6
CS(=O)(=O)Cc1noc(CN(Cc2ccco2)c2ccccc2)n1 | -5.15
CCc1cn[nH]c1C1CCN(C(=O)c2cc(C(C)=O)c(C)[nH]c2=O)CC1 | -9.17
CN(C)Cc1nc2c(o1)CN(S(=O)(=O)c1cccs1)C2 | -9.46
CN1[C@H](Cn2cccn2)C[C@@H]2CN(Cc3cccs3)CC[C@@H]21 | 18.9
Cc1cnn(CC2CCCN2Cc2nnsc2Cl)c1 (centres undefined) | 31.9
CCN(Cc1cccc2c1OCO2)CC1CCCO1 (centres undefined) | -6.33
CS(=O)(=O)c1nccn1Cc1ccc(Cl)cc1 | -5.04
Cc1ccc(NC(=O)N2CCC(NC(=O)c3ccc(C)o3)CC2)cc1 | -11.5
Cn1cnnc1C1CCN(C(=O)c2cc3c(s2)CCCC3)CC1 | 14.6
c1ccc(CN2CCCC(Cn3cncn3)C2)nc1 (centres undefined) | 20.8
COc1c(C2CCCN2CCOc2ccccc2C#N)c(C)nn1C (centres undefined) | -0.493
CN(C)C(=O)c1ccc(-c2cscn2)cc1 | 1.52
Cc1ccoc1C(=O)N1CC(C(=O)NCC2CC2)C2(CCOCC2)C1 (centres undefined) | 1.52
CC(C(=O)N(C)Cc1nnc2n1CCC2)S(C)(=O)=O (centres undefined) | -1.23
CN(Cc1ccco1)C1CCC12CCN(C(=O)c1ccncc1)CC2 (centres undefined) | -5.53
Cc1ccc(CN(C)C(=O)c2cnsn2)cc1 | 4.93

Compound | cytotoxicity at 70.5 h [%]
CC(C)(C)CC(=O)N1CCC(n2cc(C3(O)CCCC3)nn2)CC1 | -7.65
CCn1c(N)nc2cc(C(=O)NCCNc3ncccc3C)cnc21 | -3.99
N[C@H]1CN(C(=O)c2ccccc2Oc2ccccc2)C[C@@H]1C1CC1 | -9.43
CCNc1ccnc(N2CCN(Cc3ncccc3C)CC2)n1 | 3.6
Cn1cc(CN2CCCN(C(=O)c3cn4ccccc4n3)CC2)cn1 | -0.261
CN(CCC(F)(F)F)Cc1nc2ccccc2c(=O)[nH]1 | -3.56
COc1nc2c(cc1C(=O)NCc1nc(CSC)no1)CCC2 | -5.89
Cc1[nH]nc2ncc(C(=O)N3CCN(CC(C)(C)O)CC3)cc12 | -0.78
CCc1cnc(NCCCOC2CCCC2)nc1 | -16.5
COc1c(CNCc2cccc(Cn3ccnc3)c2)c(C)nn1C | -1.14
CCOC[C@H]1CC[C@H]2[C@H](CCN2C(=O)c2cnccn2)O1 | -4.15
Cc1nc(CN2CCCC(N(C)CCCc3ccccc3)C2)no1 (centres undefined) | -5.01
Cc1cc(C)n(C2CCCN(C(=O)CN(C)C3CC3)C2)n1 (centres undefined) | -3.88
CCC(C)c1noc(C2CCN(C(=O)Cn3nc(C)cc3C)CC2)n1 (centres undefined) | -5.55
COc1cnc(CSc2nnc(C)s2)cc1OCC(N)=O | 15.1
c1cc(N2CCC(c3nnc(Cn4ccnc4)n3C3CC3)CC2)ccn1 | -6.52
Cc1cc(=O)c(C(=O)N(C)Cc2ccc(Cl)c(F)c2)c[nH]1 | -1.6
CC(C)CC(=O)N1CCCC1c1nccnc1Nc1ncccn1 (centres undefined) | 29.4
Cc1ncc(CC(=O)N2CCCC(COc3ccc(F)cc3)C2)c(=O)[nH]1 (centres undefined) | 2.89
CO[C@H]1CC[C@H]2[C@H]1OCCN2C(=O)C1=CCCC1 | 9.7
Cc1ccccc1-c1cncc(C2CCN(C)CC2)n1 | -14.3
CCN1CCN2CCCN(S(=O)(=O)c3cccc(F)c3)C2C1=O (centres undefined) | -8.84
CCCNC(=O)c1sc(Nc2ccc(Cl)cn2)nc1C | -5

Compound | cytotoxicity at 70.5 h [%]
CCc1ccc(CC)c(NCC(=O)N2CCCC(NC(C)=O)C2)c1 (centres undefined) | -6.55
CC(C)CNC(=O)[C@H]1CCS(=O)(=O)[C@@H]2CN(Cc3cccnc3)C[C@H]12 | -4.4
CC1CCN(CCNC(=O)c2ccccc2N2CCOCC2)CC1 | -7.45
O=C(NCc1ccccc1CN1CCCCC1)Nc1nncs1 | -10.2
CNS(=O)(=O)c1ccc(C(=O)N2CCCCC2c2ccc(C)cc2)o1 (centres undefined) | -2.53
Cc1ccc(C)c2c(C)c(C(=O)NCCCn3cnnc3)[nH]c12 | -6.86
Cc1nnc(C2CCN(c3ccc(F)cc3)CC2)o1 | -9.58
CNC(=O)[C@@H]1C[C@@H](NC(=O)CCCc2cccs2)CN1C1CCOCC1 | -1.92
COc1cccc(CNc2c(O)c(=O)c2=O)c1 | -20.2
COc1ccc(C2=CCN(C(=O)CN(C)Cc3ccco3)CC2)cc1 | -11.2
O=C(Nc1cccc(N2CCCC2)c1)N[C@H](CCO)c1ccccc1 | 2.92
O=C(CCOc1ccccc1F)N1CCCC(n2cncn2)C1 (centres undefined) | 6.03
Cc1nc(S(=O)(=O)N2CCSC3(CCCCC3)C2)cn1C | -4
CN(C(=O)CN(Cc1cccc(O)c1)C1CCC(O)CC1)C1CC1 (centres undefined) | -6.65
O=C(c1cccnc1)N1CCC2(CC1)CCN(c1ccsc1)C2=O | -4.42
O=C(c1cnc2ccc(F)cc2c1NCc1ccccn1)N1CCCC1 | -17.9
Cc1ccc(F)cc1CC(=O)N1CC[C@@]2(O)CCNC[C@H]2C1 | -5.81
Cn1c(=O)oc2cc(S(=O)(=O)N3CCCCC3)c(Cl)cc21 | 47.9
CCC(C)(C)NC(=O)c1scnc1Cl | 12.7
c1ccc([C@@H]2CN(Cc3cccnc3)C[C@H]2c2cc[nH]n2)cc1 | -7.07
CC(C)N(CC(=O)Nc1ccc(Br)cc1Cl)Cc1cccnc1 | 38.4
Cc1ccccc1C(C(=O)O)N(C)CC1CCOCC1 (centres undefined) | -2.17
O=c1cc(CN2C[C@H]3CC[C@@H]2CN(Cc2ccccc2)C3)[nH]c(=O)[nH]1 | 2.22

Compound | cytotoxicity at 70.5 h [%]
CN(CC(=O)N1CCCC1c1noc(C2CC2)n1)S(C)(=O)=O (centres undefined) | -12.3
COCCN(CCN(C)C)C(=O)NC1CC1 | -2.74
CCn1cc(NC(=O)C2CCN(Cc3ccccc3C#N)CC2)cn1 | -1.61
CS(=O)(=O)N1CCC(C(=O)N2CCOc3ccccc32)CC1 | -5.71
CN(CC1(CO)CCCC1)C(=O)c1cc(COc2ccccc2F)[nH]n1 | -6.26
Cc1cccc(C(C(=O)NCC2(O)CCCCC2)N(C)C)c1 (centres undefined) | 14.2
O=C1CCC2(CCN(Cc3cscn3)CC2)CN1CCCO | -8.82
CC(O)CC(C)(C)CNS(=O)(=O)c1cccc(Cl)c1C#N (centres undefined) | -10
Cc1nc2c(c(N3CCCOCC3)n1)CCN(c1nccs1)CC2 | -6.82
Nc1nccnc1C(=O)NC1CCCN(Cc2c(F)cccc2F)C1 (centres undefined) | -16.3
COc1cc(C)nc(N2CCN(C(=O)c3ccccc3C)CC2)n1 | 43.9
Cn1cc(CN2CCC[C@]3(C[C@@H](Oc4ccccn4)CO3)C2)cn1 | -6.69
CCn1c(C)nnc1CN(C)C1CCN(CCS(=O)(=O)CC)C1 (centres undefined) | -5.35
CN(C)CCOCc1nnc2n1CCN(Cc1ccco1)C2 | -1.46
Cc1cc(NC2CCc3ncnn3C2)n2ncnc2n1 (centres undefined) | -106
Cc1cc(C)c2nc(C)cc(C(=O)N3CC(O)CO3)c2c1 (centres undefined) | 17.6
CN1CCN(Cc2ccncc2)Cc2cccnc21 | -9.78
Cn1nccc1-c1nnn2c1COC(CNCc1nccs1)C2 (centres undefined) | 0.565
CCCc1nc(C)c(C(=O)NCC2CCN(C3CC3)C2)s1 (centres undefined) | 23.6
O=C(c1cc(C2CCCN(Cc3ccccn3)C2)no1)N1CCCC1 (centres undefined) | -1.56
Cc1nc(C)c(C)c(N2CCC3(CCOC3)C2)n1 (centres undefined) | 17
Brc1cccc(-c2nnc(CNCCn3cccn3)o2)c1 | -10.8
CC(NC(=O)CCN1CCOC1=O)(c1ccccc1)c1ccccc1 | 0.0243

Compound | cytotoxicity at 70.5 h [%]
CSc1ccc(NC(=O)Cc2cccc(O)c2)nc1 | -20.9
CC(C)(CC(=O)N(CC(N)=O)C1CCCC1)c1ccccc1 | -9.09
COCCN1CCC(C(=O)N(C)Cc2cccc(Cl)c2)C1 (centres undefined) | 32
CC(=O)N1CCCN(C2CCCCc3ccccc32)CC1 (centres undefined) | -3.31
CCC(=O)N1CCC2(C=C(C(=O)N3CCCC3)c3ccccc32)CC1 | 8.56
CCOCC1CN(CC2CC2)Cc2cnn(C)c21 (centres undefined) | -8.87
CCc1n[nH]c(SCC(=O)N2C[C@@H]3CC[C@H](C2)N(CC=C(C)C)C3)n1 | 0.686
COCCC(=O)N1CCCC1c1csc(Nc2ccccn2)n1 (centres undefined) | 21.7
CSCCC(=O)N1CCCN(c2ccccc2C)CC1 | 13.3
Cc1cccnc1CN1CCN(C(=O)CCn2ccc(=O)[nH]c2=O)CC1 | -9.8
Cc1nnc(C(C)NCC2(c3ccc(Cl)cc3)CCOCC2)o1 (centres undefined) | -18.1
Cc1ncsc1CN1CC[C@H]2OCC[C@@]2(C(=O)N(C)C)C1 | -3.45
Cc1noc([C@H]2C[C@@H]3CCN(C(=O)c4cccn4C)C[C@H]3O2)n1 | -3.46
Cc1ccc(C(=O)NS(=O)(=O)c2ccccc2Cl)c(=O)[nH]1 | 9.73
O=C(CCc1ccccc1)N1C[C@H]2CCN[C@H]2C1 | -7.82
COCCN(C)C[C@@H]1CN(C(=O)c2ccc(C)cc2)C[C@@H]1CO | -9.29
Cc1nc(CN2CCCC2c2c(C)nn(C)c2Cl)oc1C (centres undefined) | 19.6
CCOC(=O)CSc1nnc([C@@H](N)C(C)C)o1 | -7.09
O=C1C(Nc2ccc3nccnc3n2)CCN1c1ccccc1F (centres undefined) | -9.82
CCCOCCN1CCc2[nH]c(-c3ccccc3)nc2C1 | 11.7
Cc1cccc(CCC(=O)Nc2ccnn2C2CCS(=O)(=O)C2)c1 (centres undefined) | 17
CSC(C)(C)CNC(=O)NC1CCN(C)CC1 | -3.38
